Measurements published in PubChem BioAssay (NCI).
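Exposure lasted 48 hours, with cells grown in 96-well plates and compounds tested at five concentrations. GI50 is the concentration that inhibits growth by half. TGI: total growth inhibition.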

Tests used:
Assay in all cases: NCI tumour cell line growth inhibition, 48 h
HL-60(TB) leukemia = test system: HL-60(TB) leukemia
CAKI-1 renal = test system: CAKI-1 renal
MDA-MB-231 breast = test system: MDA-MB-231 breast
SK-OV-3 ovarian = test system: SK-OV-3 ovarian
SNB-19 CNS = test system: SNB-19 CNS
OVCAR-5 ovarian = test system: OVCAR-5 ovarian
MOLT-4 leukemia = test system: MOLT-4 leukemia

Compound	TGI (HL-60(TB) leukemia) [µM]	TGI (CAKI-1 renal) [µM]	TGI (MDA-MB-231 breast) [µM]	TGI (SK-OV-3 ovarian) [µM]	TGI (SNB-19 CNS) [µM]	TGI (OVCAR-5 ovarian) [µM]	TGI (MOLT-4 leukemia) [µM]	GI50 (HL-60(TB) leukemia) [µM]	GI50 (CAKI-1 renal) [µM]	GI50 (SNB-19 CNS) [µM]	GI50 (MOLT-4 leukemia) [µM]	GI50 (OVCAR-5 ovarian) [µM]
Cc1nc2ccc(Cl)cc2c(-n2ccnc2)c1CCn1ccnc1	62.7	> 100	48.9	> 100	> 100	> 100	–	–	–	–	–	–
CN(/N=C1\C(=O)Nc2ccccc21)c1ccccc1	> 100	> 100	62.5	> 100	> 100	> 100	> 100	–	–	–	–	–
Cc1ccc2c(c1C)C(=O)C1(Cc3cc4c(cc3C1=O)CCC4)C2 (stereo not drawn)	> 100	> 100	> 100	> 100	> 100	> 100	> 100	–	–	–	–	–
NS(=O)(=O)c1nnc(NC(=O)N(c2ccccc2)c2ccccc2)s1	48.2	> 100	> 100	> 100	> 100	70.1	> 100	–	–	–	–	–
Cn1nc(-c2ccc(S(=O)(=O)/N=C(\NN)Nc3ccc(Cl)cc3)s2)cc1C(F)(F)F	22.6	35.1	32.2	41.9	30.2	30.1	22.4	–	–	–	–	–
O=C(CC(NC(=O)C(F)(F)F)C(=O)O)OCc1ccccc1 (stereo not drawn)	> 100	> 100	> 100	> 100	> 100	> 100	> 100	–	–	–	–	–
CC1CC(N2CCOCC2)=Nc2ccccc2N1C (stereo not drawn)	> 100	> 100	> 100	> 100	> 100	> 100	> 100	–	–	–	–	–
C[n+]1cc2cc(O)c(O)cc2c2ccc3cc(O)c(O)cc3c21	–	> 37.3	> 100	> 53	16.5	> 100	11.2	–	–	–	–	–
COC(=O)c1ccccc1C1CN=NC12Cc1c(ccc(C)c1C)C2=O (stereo not drawn)	> 100	> 100	> 100	> 100	> 100	> 100	> 100	–	–	–	–	–
CN(C)CCn1c(=O)c2ccc(NCCCN(C)CCCNc3ccc4c(=O)n(CCN(C)C)c(=O)n5c6ccc(O)cc6c(=O)c3c45)c3c(=O)c4cc(O)ccc4n(c1=O)c23	0.701	2.23	0.177	2.4	1.54	1.15	< 0.0289	–	–	–	–	–
N#Cc1c(-c2ccc([N+](=O)[O-])cc2)cc(-c2ccc(Nc3ccnc4cc(Cl)ccc34)cc2)[nH]c1=O	> 100	> 100	> 100	> 100	> 100	> 100	> 100	–	–	–	–	–
COCOc1ccc(C(=O)Oc2cccc3c2OC(C)(C)O3)c(OCOC)c1	19	> 100	> 100	> 100	–	> 100	> 100	–	–	–	–	–
Cc1nnc2n(c1=O)CCCN2C	> 100	–	> 100	> 100	> 100	> 100	> 100	–	–	–	–	–
O=C(c1ccco1)N(C(=O)N1CCCCC1)c1ccccc1	> 100	> 100	> 100	> 100	> 100	> 100	> 100	–	–	–	–	–
Cc1ccc(-c2cc(-c3ccco3)c(C#N)c(=S)[nH]2)cc1	> 100	> 100	> 100	> 100	> 100	> 100	> 100	–	–	–	–	–
Cc1c2cccc-2c2cc(O)c3ccccc3c2n1-c1ccc(N(C)C)cc1	> 100	31.7	9.75	29.3	30	24.7	–	–	–	–	–	–
O=C(ON=C1c2ccccc2C(Br)C(Br)c2ccccc21)c1ccccc1 (stereo not drawn)	1.22	23.7	33.5	38.9	62.1	35.6	4.61	–	–	–	–	–
O=CC(I)=C(c1ccccc1)c1ccccc1	38.6	30.4	29	29.9	30.1	40.7	72.3	–	–	–	–	–
CCOC1C=CC(=O)C(CO)O1 (stereo not drawn)	20.9	27.3	32.1	33.3	42.9	35.2	21.2	–	–	–	–	–
Clc1cccc(-c2sc(-c3cccs3)cc2Cc2cccs2)c1	> 10	> 10	> 10	> 10	> 10	–	> 10	–	–	–	–	–
Cn1c2ccccc2n2c3ncccc3c(=O)c(C#N)c12	> 100	> 77.3	57.1	98.1	> 62.5	> 100	> 100	–	–	–	–	–
CN(O)C(=O)/C=C/c1ccc(OCc2cccc(Cl)c2)cc1	52	62.6	> 100	> 100	> 100	> 100	39.6	–	–	–	–	–
COc1ccc2c(c1)c1c(n2CCN2CCCCC2)-c2cccc(OC)c2CC1	–	37.7	36.6	> 100	29.7	32.8	48	–	–	–	–	–
Cc1ccc2cccc(-c3cccc4ccccc34)c2n1	16.3	> 100	81	75.2	> 100	55.5	40.6	–	–	–	–	–
c1ccc(-c2c(-c3ccccc3)[n+](Cc3ccc4ccccc4c3)c(-c3ccc(-c4nc5ccccc5s4)cc3)n2Cc2ccc3ccccc3c2)cc1	0.471	0.451	–	–	1.26	1.17	0.759	0.149	0.189	0.0784	0.139	0.311
COC(=O)/C=C(/C=C1/C(C#N)=C(N)N(c2ccc(Cl)cc2)C1(C)/C(=C\C(=O)OC)C(=O)OC)C(=O)OC (stereo not drawn)	> 100	45.5	53.4	> 100	> 100	48.3	78.9	–	–	–	–	–
CC(=O)O[C@@H](c1nccn1Cc1ccccc1)[C@H]1OC(C)(C)O[C@@H]1[C@H]1COC(C)(C)O1	> 100	> 100	> 100	–	–	> 100	> 100	–	–	–	–	–
